Data published in ChEMBL document CHEMBL1255337, “Entecavir exhibits inhibitory activity against human immunodeficiency virus under conditions of reduced viral challenge” (Antimicrob Agents Chemother, 2008).
Calls of active or inactive are those of the source. The rule behind the calls is not given here.

Experiments:
[1] = test system: Human immunodeficiency virus 1; assay: Antiviral activity against HIV1 3B infected in MOLT-4/3B cells assessed as inhibition of mature virus release measured after 4 days of infection by RT assay; type: functional, organism-based; settings: Human immunodeficiency virus 1, 3B, MOLT-4, 96 h
Hepatitis B virus = assay: Antiviral activity against Hepatitis B virus; type: functional, organism-based
[2] = test system: Human immunodeficiency virus 1; assay: Antiviral activity against HIV1 infected in human CEM-SS cells after 10 days by MTT assay; type: functional, organism-based; settings: Human immunodeficiency virus 1, CEM-SS, 240 h
CEM-SS = assay: Cytotoxicity against human CEM-SS cells after 10 days by MTT assay; type: cell-based; settings: 240 h
[3] = test system: Human immunodeficiency virus 1; assay: Antiviral activity against pseudotype HIV1 LAI-Luc infected in CD4-positive human HeLa cells measured on day 3 postinfection by luciferase reporter gene assay; type: functional, organism-based; settings: Human immunodeficiency virus 1, LAI-Luc, 72 h
[4] = test system: Human immunodeficiency virus 1; assay: Antiviral activity against pseudotype HIV1 LAI-Luc infected in human MT2 cells measured on day 3 postinfection by luciferase reporter gene assay; type: functional, organism-based; settings: Human immunodeficiency virus 1, LAI-Luc, MT2, 72 h
[5] = test system: Human immunodeficiency virus 1; assay: Antiviral activity against pseudotype HIV1 LAI-Luc infected in human PBMC measured on day 3 postinfection by luciferase reporter gene assay; type: functional, organism-based; settings: Human immunodeficiency virus 1, LAI-Luc, 72 h
[6] = test system: Human immunodeficiency virus 1; assay: Antiviral activity against pseudotype HIV1 NL-Luc infected in 24 hrs pretreated HEK293 cells by phenosense assay; type: functional, organism-based; settings: Human immunodeficiency virus 1, NL-Luc
[7] = test system: Human immunodeficiency virus 1; assay: Antiviral activity against HIV1 subtype B-NL4-3 infected in 2 hrs pretreated human MT2 cells assessed as inhibition of multicycle replication measured on day 5 postinfection by RT SPA; type: functional, organism-based; settings: Human immunodeficiency virus 1, subtype B-NL4-3, MT2
[8] = test system: Human immunodeficiency virus 1; assay: Antiviral activity against HIV1 subtype B-NL4-3 infected in 3 hrs pretreated human MT2 cells assessed as inhibition of multicycle replication measured on day 5 postinfection by RT SPA; type: functional, organism-based; settings: Human immunodeficiency virus 1, subtype B-NL4-3, MT2
[9] = test system: Human immunodeficiency virus 1; assay: Antiviral activity against 0.006 MOI HIV1 NL4-3 infected in human MT2 cells measured after 5 days by RT SPA; type: functional, organism-based; settings: Human immunodeficiency virus 1, NL4-3, MT2, 120 h
[10] = test system: Human immunodeficiency virus 1; assay: Antiviral activity against 0.006 MOI HIV1 NL4-3 infected in 1 hr-pretreated human MT2 cells measured after 5 days by RT SPA; type: functional, organism-based; settings: Human immunodeficiency virus 1, NL4-3, MT2
[11] = test system: Human immunodeficiency virus 1; assay: Antiviral activity against 0.006 MOI HIV1 NL4-3 infected in 2 hr-pretreated human MT2 cells measured after 5 days by RT SPA; type: functional, organism-based; settings: Human immunodeficiency virus 1, NL4-3, MT2
[12] = test system: Human immunodeficiency virus 1; type: functional, organism-based; settings: Human immunodeficiency virus 1, NL4-3, MT2
[13] = test system: Human immunodeficiency virus 1; assay: Antiviral activity against 0.005 MOI HIV1 NL4-3 harboring wild type RT infected in human MT2 cells by phenosense assay; type: functional, organism-based; settings: Human immunodeficiency virus 1, NL4-3, MT2
[14] = test system: Human immunodeficiency virus 1; type: functional, organism-based; settings: Human immunodeficiency virus 1, NL4-3, MT2; remark: listed apart in the source
[15] = test system: Human immunodeficiency virus 1; assay: Antiviral activity against HIV1 NL4-3 harboring M184L mutant RT infected in human MT2 cellssmeasured after 7 passages on day 34 postinfection; type: functional, organism-based; settings: Human immunodeficiency virus 1, NL4-3, MT2
[16] = test system: Human immunodeficiency virus; assay: Antiviral activity against HIV infected in CD4+ lymphocyte by fluorescence-activated cell sorter assay; type: functional, organism-based; settings: Human immunodeficiency virus 1
[17] = Cmax in human blood; type: ADME, organism-based
[18] = test system: Human immunodeficiency virus 1; type: functional, organism-based; settings: NL4-3, 2.5 uM
[19] = Cmax in human at 1 mg, po; settings: in vivo
[20] = test system: Human immunodeficiency virus 1; assay: microbe, parasite or virus in culture; settings: Human immunodeficiency virus 1, NL-RLuc, MT2, 120 h
Description: Antiviral activity against pseudotype HIV1 NL-RLuc infected in human MT2 cells measured on day 5 postinfection by luciferase reporter gene assay

[21] = test system: Human immunodeficiency virus 1; assay: microbe, parasite or virus in culture; settings: Human immunodeficiency virus 1, subtype B-HXB2, MT2
Description: Antiviral activity against HIV1 subtype B-HXB2 infected in 1 hr-pretreated human MT2 cells assessed as inhibition of multicycle replication measured on day 5 postinfection by RT SPA

[22] = test system: Human immunodeficiency virus 1; assay: microbe, parasite or virus in culture; settings: Human immunodeficiency virus 1, subtype B-RF, MT2
Description: Antiviral activity against HIV1 subtype B-RF infected in 1 hr-pretreated human MT2 cells assessed as inhibition of multicycle replication measured on day 5 postinfection by RT SPA

[23] = test system: Human immunodeficiency virus 1; assay: microbe, parasite or virus in culture; settings: Human immunodeficiency virus 1, subtype B-SF-2, MT2
Description: Antiviral activity against HIV1 subtype B-SF-2 infected in 1 hr-pretreated human MT2 cells assessed as inhibition of multicycle replication measured on day 5 postinfection by RT SPA

[24] = test system: Human immunodeficiency virus 1; assay: microbe, parasite or virus in culture; settings: Human immunodeficiency virus 1, subtype B-3B, MT2
Description: Antiviral activity against HIV1 subtype B-3B infected in 1 hr-pretreated human MT2 cells assessed as inhibition of multicycle replication measured on day 5 postinfection by RT SPA

[25] = test system: Human immunodeficiency virus 1; assay: microbe, parasite or virus in culture; settings: Human immunodeficiency virus 1, subtype B-LAI, MT2
Description: Antiviral activity against HIV1 subtype B-LAI infected in 1 hr-pretreated human MT2 cells assessed as inhibition of multicycle replication measured on day 5 postinfection by RT SPA

[26] = test system: Human immunodeficiency virus 1; assay: microbe, parasite or virus in culture; settings: Human immunodeficiency virus 1, subtype B-NL4-3, MT2
Description: Antiviral activity against HIV1 subtype B-NL4-3 infected in 1 hr-pretreated human MT2 cells assessed as inhibition of multicycle replication measured on day 5 postinfection by RT SPA

[27] = test system: Human immunodeficiency virus 1; assay: microbe, parasite or virus in culture; settings: Human immunodeficiency virus 1, subtype B-93US143, PBMC
Description: Antiviral activity against HIV1 subtype B-93US143 infected in 1 hr-pretreated PBMC cells assessed as inhibition of p24 antigen production measured on day 5 postinfection by ELISA

[28] = test system: Human immunodeficiency virus 1; assay: microbe, parasite or virus in culture; settings: Human immunodeficiency virus 1, subtype B-ASM 034, PBMC
Description: Antiviral activity against HIV1 subtype B-ASM 034 infected in 1 hr-pretreated PBMC cells assessed as inhibition of p24 antigen production measured on day 5 postinfection by ELISA

[29] = test system: Human immunodeficiency virus 1; assay: microbe, parasite or virus in culture; settings: Human immunodeficiency virus 1, subtype B-92US076, PBMC
Description: Antiviral activity against HIV1 subtype B-92US076 infected in 1 hr-pretreated PBMC cells assessed as inhibition of p24 antigen production measured on day 5 postinfection by ELISA

[30] = test system: Human immunodeficiency virus 1; assay: microbe, parasite or virus in culture; settings: Human immunodeficiency virus 1, subtype B-ASM 044, PBMC
Description: Antiviral activity against HIV1 subtype B-ASM 044 infected in 1 hr-pretreated PBMC cells assessed as inhibition of p24 antigen production measured on day 5 postinfection by ELISA

[31] = test system: Human immunodeficiency virus 1; assay: microbe, parasite or virus in culture; settings: Human immunodeficiency virus 1, NL4-3, MT2, 120 h
Description: Antiviral activity against 0.005 MOI wild type HIV1 NL4-3 infected in human MT2 cells measured after 5 days by RT SPA

[32] = test system: Human immunodeficiency virus 1; assay: microbe, parasite or virus in culture; settings: Human immunodeficiency virus 1, NL4-3, MT2, 120 h; remark: listed apart in the source
Description: Antiviral activity against 0.01 MOI wild type HIV1 NL4-3 infected in human MT2 cells measured after 5 days by RT SPA

[33] = test system: Human immunodeficiency virus 1; assay: microbe, parasite or virus in culture; settings: Human immunodeficiency virus 1, NL4-3, MT2, 120 h; remark: listed apart in the source
Description: Antiviral activity against 0.02 MOI wild type HIV1 NL4-3 infected in human MT2 cells measured after 5 days by RT SPA

[34] = test system: Human immunodeficiency virus 1; assay: microbe, parasite or virus in culture; settings: Human immunodeficiency virus 1, NL4-3, MT2, 120 h; remark: listed apart in the source
Description: Antiviral activity against 0.05 MOI wild type HIV1 NL4-3 infected in human MT2 cells measured after 5 days by RT SPA

[35] = test system: Human immunodeficiency virus 1; assay: microbe, parasite or virus in culture; settings: Human immunodeficiency virus 1, NL4-3, MT2
Description: Antiviral activity against 0.005 MOI wild type HIV1 NL4-3 infected in 2 hr-pretreated human MT2 cells measured after 5 days by RT SPA

[36] = test system: Human immunodeficiency virus 1; assay: microbe, parasite or virus in culture; settings: Human immunodeficiency virus 1, NL4-3, MT2; remark: listed apart in the source
Description: Antiviral activity against 0.01 MOI wild type HIV1 NL4-3 infected in 2 hr-pretreated human MT2 cells measured after 5 days by RT SPA

[37] = test system: Human immunodeficiency virus 1; assay: microbe, parasite or virus in culture; settings: Human immunodeficiency virus 1, NL4-3, MT2; remark: listed apart in the source
Description: Antiviral activity against 0.02 MOI wild type HIV1 NL4-3 infected in 2 hr-pretreated human MT2 cells measured after 5 days by RT SPA

[38] = test system: Human immunodeficiency virus 1; assay: microbe, parasite or virus in culture; settings: Human immunodeficiency virus 1, NL4-3, MT2; remark: listed apart in the source
Description: Antiviral activity against 0.05 MOI wild type HIV1 NL4-3 infected in 2 hr-pretreated human MT2 cells measured after 5 days by RT SPA

[39] = test system: Human immunodeficiency virus 1; assay: microbe, parasite or virus in culture; settings: Human immunodeficiency virus 1, NL4-3, MT2, 120 h; remark: listed apart in the source
Description: Antiviral activity against 0.005 MOI wild type HIV1 NL4-3 infected in human MT2 cells measured after 5 days by MTS assay

[40] = test system: Human immunodeficiency virus 1; assay: microbe, parasite or virus in culture; settings: Human immunodeficiency virus 1, NL4-3, MT2, 120 h; remark: listed apart in the source
Description: Antiviral activity against 0.01 MOI wild type HIV1 NL4-3 infected in human MT2 cells measured after 5 days by MTS assay

[41] = test system: Human immunodeficiency virus 1; assay: microbe, parasite or virus in culture; settings: Human immunodeficiency virus 1, NL4-3, MT2, 120 h; remark: listed apart in the source
Description: Antiviral activity against 0.02 MOI wild type HIV1 NL4-3 infected in human MT2 cells measured after 5 days by MTS assay

[42] = test system: Human immunodeficiency virus 1; assay: microbe, parasite or virus in culture; settings: Human immunodeficiency virus 1, NL4-3, MT2, 120 h; remark: listed apart in the source
Description: Antiviral activity against 0.05 MOI wild type HIV1 NL4-3 infected in human MT2 cells measured after 5 days by MTS assay

[43] = test system: Human immunodeficiency virus 1; assay: microbe, parasite or virus in culture; settings: Human immunodeficiency virus 1, NL4-3, MT2; remark: listed apart in the source
Description: Antiviral activity against 0.005 MOI wild type HIV1 NL4-3 infected in 2 hr-pretreated human MT2 cells measured after 5 days by MTS assay

[44] = test system: Human immunodeficiency virus 1; assay: microbe, parasite or virus in culture; settings: Human immunodeficiency virus 1, NL4-3, MT2; remark: listed apart in the source
Description: Antiviral activity against 0.01 MOI wild type HIV1 NL4-3 infected in 2 hr-pretreated human MT2 cells measured after 5 days by MTS assay

[45] = test system: Human immunodeficiency virus 1; assay: microbe, parasite or virus in culture; settings: Human immunodeficiency virus 1, NL4-3, MT2; remark: listed apart in the source
Description: Antiviral activity against 0.02 MOI wild type HIV1 NL4-3 infected in 2 hr-pretreated human MT2 cells measured after 5 days by MTS assay

[46] = test system: Human immunodeficiency virus 1; assay: microbe, parasite or virus in culture; settings: Human immunodeficiency virus 1, NL4-3, MT2; remark: listed apart in the source
Description: Antiviral activity against 0.05 MOI wild type HIV1 NL4-3 infected in 2 hr-pretreated human MT2 cells measured after 5 days by MTS assay

[47] = test system: Human immunodeficiency virus 1; assay: microbe, parasite or virus in culture; settings: Human immunodeficiency virus 1, NL4-3, MT2; remark: listed apart in the source

## Cc1c(O)cccc1C(=O)N[C@@H](CSc1ccccc1)[C@H](O)CN1C[C@H]2CCCC[C@H]2C[C@H]1C(=O)NC(C)(C)C [NELFINAVIR]
[1]
  EC50: 0.029 µM

## C=C1[C@H](CO)[C@@H](O)C[C@@H]1n1cnc2c(=O)[nH]c(N)nc21.O [ENTECAVIR]
Hepatitis B virus
  EC50: 0.004 µM
[2]
  EC50: > 10 µM
CEM-SS
  CC50: 21 µM
[3]
  EC50: > 4 µM
[4]
  EC50: > 1.2 µM
[5]
  EC50: > 2.5 µM
[6]
  EC50: 30.6 µM
[7]
  EC50: 1.4 µM
[8]
  EC50: > 10 µM
[9]
  EC50: 0.151 µM
[10]
  EC50: 0.287 µM
[11]
  EC50: 13.5 µM
[1]
  EC50: > 38 µM
[12]
  EC50: > 10 µM
[13]
  EC50: 30.6 µM
[14]
  EC50: > 100 µM
[15]
  EC50: > 10 µM
[16]
  EC50: 0.0001 µM
[17]
  Cmax: 30 nM
[18]
  Activity: Active
[19]
  Cmax: 30 nM
[20]
  EC50: 1.3 µM
[21]
  EC50: 1.03 µM
[22]
  EC50: 0.839 µM
[23]
  EC50: 0.526 µM
[24]
  EC50: 0.081 µM
[25]
  EC50: 0.071 µM
[26]
  EC50: 0.085 µM
[27]
  EC50: 1.75 µM
[28]
  EC50: 0.109 µM
[29]
  EC50: 0.062 µM
[30]
  EC50: 0.026 µM
[31]
  EC50: 0.056 µM
[32]
  EC50: 0.095 µM
[33]
  EC50: 0.449 µM
[34]
  EC50: 6.45 µM
[35]
  EC50: 3.62 µM
[36]
  EC50: 9.57 µM
[37]
  EC50: > 10000 µM
[38]
  EC50: > 10000 µM
[39]
  EC50: 1.36 µM
[40]
  EC50: > 2.9 µM
[41]
  EC50: > 6.35 µM
[42]
  EC50: > 10 µM
[43]
  EC50: > 10 µM
[44]
  EC50: > 9.69 µM
[45]
  EC50: > 10 µM
[46]
  EC50: > 10 µM
[47]
  EC50: 0.056 µM

## Nc1ccn([C@@H]2CS[C@H](CO)O2)c(=O)n1 [LAMIVUDINE]
[1]
  EC50: > 100 µM
[12]
  EC50: > 10 µM
[18]
  Activity: inactive
[20]
  EC50: 1.14 µM
[21]
  EC50: 0.202 µM
[22]
  EC50: 0.105 µM
[23]
  EC50: 0.183 µM
[24]
  EC50: 0.047 µM
[25]
  EC50: 0.182 µM
[26]
  EC50: 0.171 µM
[27]
  EC50: 0.85 µM
[28]
  EC50: 0.071 µM
[29]
  EC50: 0.081 µM
[30]
  EC50: 0.04 µM
[31]
  EC50: 0.04 µM
[32]
  EC50: 0.063 µM
[33]
  EC50: 0.086 µM
[34]
  EC50: 0.372 µM
[35]
  EC50: 0.462 µM
[36]
  EC50: 0.667 µM
[37]
  EC50: 1.99 µM
[38]
  EC50: 2.47 µM
[39]
  EC50: 0.219 µM
[40]
  EC50: 0.554 µM
[41]
  EC50: 0.969 µM
[42]
  EC50: 0.927 µM
[43]
  EC50: 1.26 µM
[44]
  EC50: 1.68 µM
[45]
  EC50: 2.44 µM
[46]
  EC50: 3.25 µM
[47]
  EC50: 0.04 µM

## Cc1cn([C@H]2C[C@H](N=[N+]=[N-])[C@@H](CO)O2)c(=O)[nH]c1=O [ZIDOVUDINE]
[1]
  EC50: > 10 µM
[12]
  EC50: 0.005 µM
[20]
  EC50: 0.016 µM
[21]
  EC50: 0.014 µM
[22]
  EC50: 0.0029 µM
[23]
  EC50: 0.0063 µM
[24]
  EC50: 0.0012 µM
[25]
  EC50: 0.0038 µM
[26]
  EC50: 0.0049 µM
[27]
  EC50: 0.034 µM
[28]
  EC50: 0.018 µM
[29]
  EC50: 0.008 µM
[30]
  EC50: 0.016 µM
[31]
  EC50: 0.01 µM
[32]
  EC50: 0.008 µM
[33]
  EC50: 0.018 µM
[34]
  EC50: 0.043 µM
[35]
  EC50: 0.051 µM
[36]
  EC50: 0.075 µM
[37]
  EC50: 0.209 µM
[38]
  EC50: 0.249 µM
[39]
  EC50: 0.027 µM
[40]
  EC50: 0.038 µM
[41]
  EC50: 0.054 µM
[42]
  EC50: 0.087 µM
[43]
  EC50: 0.117 µM
[44]
  EC50: 0.144 µM
[45]
  EC50: 0.223 µM
[46]
  EC50: 0.302 µM
[47]
  EC50: 0.01 µM

## O=C1Nc2ccc(Cl)cc2[C@@](C#CC2CC2)(C(F)(F)F)O1 [EFAVIRENZ]
[12]
  EC50: 0.0002 µM
